Activity calls are given as the source filed them.
Experiments:
[1] = molecular target: T1, Calpain-2 catalytic subunit (Sus scrofa, UniProt P43367); assay: m-calpain protease blockers, concentration series – biochemical, fluorogenic peptide substrate, dose response (AID 1420); type: functional
T1 sequence (P43367 whole entry): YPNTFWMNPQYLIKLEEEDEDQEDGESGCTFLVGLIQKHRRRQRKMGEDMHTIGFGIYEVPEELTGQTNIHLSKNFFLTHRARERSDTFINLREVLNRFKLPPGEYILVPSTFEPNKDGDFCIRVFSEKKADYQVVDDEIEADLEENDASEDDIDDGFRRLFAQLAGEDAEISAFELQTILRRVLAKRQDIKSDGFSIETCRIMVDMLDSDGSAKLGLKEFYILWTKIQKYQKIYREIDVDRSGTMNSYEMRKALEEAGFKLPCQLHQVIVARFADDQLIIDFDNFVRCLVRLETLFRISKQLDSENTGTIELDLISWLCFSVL

Ephrin type-A receptor 4 = Ephrin type-A receptor 4 (Mus musculus, UniProt Q03137); assay: EphA4 ligand-binding antagonists – biochemical, colorimetric, mouse EphA4, primary screen (AID 689); type: functional
[2] = viability loss in Vero cells – cytotoxicity control for Vif-APOBEC3G degradation inhibitor project, dose response (AID 1117358); type: functional; conditions: Vero
Caspase-6 = Caspase-6 (Homo sapiens, UniProt P55212); assay: inhibition of CASP6 peptide cleavage – biochemical, VEID-R110 fluorescence, cherry-pick, dose response (AID 720632)
[3] = molecular target: T2, Polyadenylate-binding protein 1 (Homo sapiens, UniProt P11940); assay: MLLE domain peptide-binding blockers, IC50 – biochemical, fluorescence polarization, FITC-PAM2 peptide, dose response (AID 602259); type: functional; conditions: read-out: IC50_Mean
Genome polyprotein = Genome polyprotein (dengue virus type 2, UniProt P29990); assay: flavivirus cap methylation enzyme inhibition – biochemical, confirmation dose response, primary screen (AID 588689); type: functional
[4] = molecular target: T2, Polyadenylate-binding protein 1; assay: MLLE binding blockers, Cy5 peptide tracer – biochemical, fluorescence polarization, Cy5-PAM2 peptide, secondary, miRNA deadenylation inhibitor project, dose response (AID 602260); type: functional; conditions: read-out: IC50_Mean
[5] = molecular target: T3, Methionyl-tRNA synthetase, putative (Trypanosoma brucei brucei, UniProt Q38C91); type: functional, Trypanosoma brucei brucei strain 927/4 GUTat10.1
T3 sequence (Q38C91 whole entry): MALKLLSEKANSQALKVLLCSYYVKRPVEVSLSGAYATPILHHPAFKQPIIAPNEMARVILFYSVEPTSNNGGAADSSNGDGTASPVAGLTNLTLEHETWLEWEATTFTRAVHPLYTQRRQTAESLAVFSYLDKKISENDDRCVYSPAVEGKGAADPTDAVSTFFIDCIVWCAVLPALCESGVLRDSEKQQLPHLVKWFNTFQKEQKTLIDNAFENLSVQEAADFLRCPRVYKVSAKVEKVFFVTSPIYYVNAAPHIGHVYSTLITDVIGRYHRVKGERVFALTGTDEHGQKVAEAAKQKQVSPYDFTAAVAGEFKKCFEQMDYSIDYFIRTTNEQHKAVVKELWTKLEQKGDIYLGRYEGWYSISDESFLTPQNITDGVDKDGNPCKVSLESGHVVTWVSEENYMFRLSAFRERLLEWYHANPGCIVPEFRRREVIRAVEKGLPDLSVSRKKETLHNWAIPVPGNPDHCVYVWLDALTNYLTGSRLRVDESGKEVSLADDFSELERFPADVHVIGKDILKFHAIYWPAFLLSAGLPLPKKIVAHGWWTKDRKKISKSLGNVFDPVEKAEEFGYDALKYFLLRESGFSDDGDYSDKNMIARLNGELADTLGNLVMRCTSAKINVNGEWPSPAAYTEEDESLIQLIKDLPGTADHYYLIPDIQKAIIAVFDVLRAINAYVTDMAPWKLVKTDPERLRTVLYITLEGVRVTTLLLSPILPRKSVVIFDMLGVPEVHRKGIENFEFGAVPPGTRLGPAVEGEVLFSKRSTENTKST

[6] = molecular target: T3, Methionyl-tRNA synthetase, putative; type: functional, Trypanosoma brucei brucei strain 927/4 GUTat10.1; remark: listed apart in the source
[7] = Late stage counterscreen for inhibitors of Trypanosoma brucei methionyl tRNA synthetase (MetRS): Luminescence-based cell-based high throughput dose response assay to identify compounds that are cytotoxic to Jurkat human T lymphocyte cells.; type: functional
[8] = Counterscreen for inhibitors of Trypanosoma brucei methionyl tRNA synthetase (MetRS): Luminescence-based cell-based high throughput dose response assay to identify compounds that are cytotoxic to Jurkat human T lymphocyte cells.; type: functional
[9] = molecular target: T4, NAD-dependent protein deacylase sirtuin-5, mitochondrial (Homo sapiens, UniProt Q9NXA8); assay: sirtuin-5 deacylation blockers, concentration series – biochemical, fluorescence imaging, cherry-pick, set 5, dose response (AID 720591);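 note: desuccinylation of succinyl peptide AMC substrate read as fluorescence after trypsin release; potency of inhibitors that lower fluorescence and may act on trypsin instead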
[10] = molecular target: T4, NAD-dependent protein deacylase sirtuin-5, mitochondrial; assay: blockers of sirtuin-5 peptide desuccinylation – biochemical, fluorescence imaging, cherry-pick, set 6, dose response (AID 720597)
Bcl-2-like protein 10 = molecular target: T5, Bcl-2-like protein 10 (Homo sapiens, UniProt Q9HD36); assay: Bcl-B/TR3 peptide binding disruption – biochemical, fluorescence polarization, FITC-TR3 peptide, selectivity assay for Bfl-1 inhibitor project, primary screen (AID 748);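 note: fluorescence polarization from a fluorescein-labelled TR3 peptide binding purified Bcl-B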
T5 sequence (Q9HD36 whole entry): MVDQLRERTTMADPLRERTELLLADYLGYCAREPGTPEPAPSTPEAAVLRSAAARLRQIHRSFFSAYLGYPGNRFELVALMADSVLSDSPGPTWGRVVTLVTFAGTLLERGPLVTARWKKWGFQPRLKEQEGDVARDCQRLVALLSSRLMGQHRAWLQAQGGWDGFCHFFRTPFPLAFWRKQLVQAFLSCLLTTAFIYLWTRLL

[11] = molecular target: T6, Tyrosine-protein phosphatase non-receptor type 7 (Homo sapiens, UniProt P35236); assay: HePTP tyrosine phosphatase activity blockers – biochemical, absorbance, leukemia target, primary screen (AID 521); type: functional
T6 sequence (P35236 whole entry): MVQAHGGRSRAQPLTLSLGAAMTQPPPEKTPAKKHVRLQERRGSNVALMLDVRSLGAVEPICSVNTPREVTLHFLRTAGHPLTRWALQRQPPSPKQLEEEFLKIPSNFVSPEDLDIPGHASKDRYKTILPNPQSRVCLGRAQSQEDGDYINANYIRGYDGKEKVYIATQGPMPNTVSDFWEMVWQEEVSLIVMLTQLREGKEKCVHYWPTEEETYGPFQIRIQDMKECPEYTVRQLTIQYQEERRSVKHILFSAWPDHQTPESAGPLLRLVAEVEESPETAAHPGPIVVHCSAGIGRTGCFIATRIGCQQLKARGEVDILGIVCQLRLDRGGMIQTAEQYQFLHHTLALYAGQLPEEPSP

T4 sequence (Q9NXA8 whole entry): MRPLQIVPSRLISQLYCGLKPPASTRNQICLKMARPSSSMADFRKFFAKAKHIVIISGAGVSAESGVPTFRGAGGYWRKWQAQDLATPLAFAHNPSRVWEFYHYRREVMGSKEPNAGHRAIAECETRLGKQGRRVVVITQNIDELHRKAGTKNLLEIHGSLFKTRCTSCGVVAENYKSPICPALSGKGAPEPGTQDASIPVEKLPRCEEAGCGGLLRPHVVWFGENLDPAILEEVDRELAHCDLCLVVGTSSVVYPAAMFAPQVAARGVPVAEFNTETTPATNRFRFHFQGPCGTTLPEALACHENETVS
T2 sequence (P11940 whole entry, the tested form may be a part): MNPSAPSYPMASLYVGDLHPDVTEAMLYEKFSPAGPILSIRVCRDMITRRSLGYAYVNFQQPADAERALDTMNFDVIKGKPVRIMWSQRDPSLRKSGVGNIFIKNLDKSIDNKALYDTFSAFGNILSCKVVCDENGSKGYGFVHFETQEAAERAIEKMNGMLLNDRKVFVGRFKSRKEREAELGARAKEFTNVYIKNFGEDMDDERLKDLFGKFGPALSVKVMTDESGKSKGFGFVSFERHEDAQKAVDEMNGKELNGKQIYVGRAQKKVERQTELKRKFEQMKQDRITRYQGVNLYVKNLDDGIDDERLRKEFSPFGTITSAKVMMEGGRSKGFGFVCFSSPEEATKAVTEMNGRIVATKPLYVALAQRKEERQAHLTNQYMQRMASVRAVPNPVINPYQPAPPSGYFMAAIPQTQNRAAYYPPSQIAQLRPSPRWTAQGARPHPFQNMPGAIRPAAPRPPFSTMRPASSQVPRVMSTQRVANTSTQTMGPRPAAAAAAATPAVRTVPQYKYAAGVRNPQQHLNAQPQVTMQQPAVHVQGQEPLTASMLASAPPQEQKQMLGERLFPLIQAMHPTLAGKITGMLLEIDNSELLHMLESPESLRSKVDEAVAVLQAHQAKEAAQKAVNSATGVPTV
Ephrin type-A receptor 4, sequence (Q03137 whole entry): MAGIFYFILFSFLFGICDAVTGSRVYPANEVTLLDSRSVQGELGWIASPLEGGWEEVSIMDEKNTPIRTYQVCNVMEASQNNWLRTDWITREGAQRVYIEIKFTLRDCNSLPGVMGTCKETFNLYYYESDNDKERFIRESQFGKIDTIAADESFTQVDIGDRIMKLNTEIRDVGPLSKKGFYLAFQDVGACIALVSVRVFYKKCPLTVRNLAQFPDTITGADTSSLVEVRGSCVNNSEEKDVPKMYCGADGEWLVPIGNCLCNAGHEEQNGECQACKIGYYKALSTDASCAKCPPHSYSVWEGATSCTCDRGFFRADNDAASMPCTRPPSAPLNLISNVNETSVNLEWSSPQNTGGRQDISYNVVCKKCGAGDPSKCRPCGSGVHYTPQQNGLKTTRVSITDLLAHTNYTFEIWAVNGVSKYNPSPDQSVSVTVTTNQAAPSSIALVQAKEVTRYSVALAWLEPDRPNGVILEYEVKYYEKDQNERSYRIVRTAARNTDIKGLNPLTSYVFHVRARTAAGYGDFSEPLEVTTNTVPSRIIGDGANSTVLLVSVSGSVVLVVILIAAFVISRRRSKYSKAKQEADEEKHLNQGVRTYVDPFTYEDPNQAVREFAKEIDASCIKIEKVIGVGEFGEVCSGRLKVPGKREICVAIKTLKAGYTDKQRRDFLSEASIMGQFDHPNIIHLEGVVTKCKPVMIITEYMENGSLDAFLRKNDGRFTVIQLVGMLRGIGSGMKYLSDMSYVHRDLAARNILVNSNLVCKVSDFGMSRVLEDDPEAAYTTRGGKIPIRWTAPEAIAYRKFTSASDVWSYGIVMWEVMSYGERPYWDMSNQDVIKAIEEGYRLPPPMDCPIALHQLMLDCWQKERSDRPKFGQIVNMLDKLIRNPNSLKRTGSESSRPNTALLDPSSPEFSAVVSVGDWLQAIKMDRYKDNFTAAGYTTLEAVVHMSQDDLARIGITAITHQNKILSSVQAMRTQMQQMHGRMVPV
Caspase-6, sequence (P55212 24-179 limits assumed): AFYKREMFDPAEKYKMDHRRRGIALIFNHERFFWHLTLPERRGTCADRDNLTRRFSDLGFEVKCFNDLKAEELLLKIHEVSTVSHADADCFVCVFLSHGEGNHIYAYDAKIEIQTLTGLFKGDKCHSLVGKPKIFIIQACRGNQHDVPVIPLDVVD
Caspase-6, sequence (P55212 194-293 limits assumed): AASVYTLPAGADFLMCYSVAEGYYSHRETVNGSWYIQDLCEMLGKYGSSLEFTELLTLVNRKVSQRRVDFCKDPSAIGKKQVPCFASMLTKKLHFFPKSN
Genome polyprotein, sequence (P29990 2492-3391 limits assumed): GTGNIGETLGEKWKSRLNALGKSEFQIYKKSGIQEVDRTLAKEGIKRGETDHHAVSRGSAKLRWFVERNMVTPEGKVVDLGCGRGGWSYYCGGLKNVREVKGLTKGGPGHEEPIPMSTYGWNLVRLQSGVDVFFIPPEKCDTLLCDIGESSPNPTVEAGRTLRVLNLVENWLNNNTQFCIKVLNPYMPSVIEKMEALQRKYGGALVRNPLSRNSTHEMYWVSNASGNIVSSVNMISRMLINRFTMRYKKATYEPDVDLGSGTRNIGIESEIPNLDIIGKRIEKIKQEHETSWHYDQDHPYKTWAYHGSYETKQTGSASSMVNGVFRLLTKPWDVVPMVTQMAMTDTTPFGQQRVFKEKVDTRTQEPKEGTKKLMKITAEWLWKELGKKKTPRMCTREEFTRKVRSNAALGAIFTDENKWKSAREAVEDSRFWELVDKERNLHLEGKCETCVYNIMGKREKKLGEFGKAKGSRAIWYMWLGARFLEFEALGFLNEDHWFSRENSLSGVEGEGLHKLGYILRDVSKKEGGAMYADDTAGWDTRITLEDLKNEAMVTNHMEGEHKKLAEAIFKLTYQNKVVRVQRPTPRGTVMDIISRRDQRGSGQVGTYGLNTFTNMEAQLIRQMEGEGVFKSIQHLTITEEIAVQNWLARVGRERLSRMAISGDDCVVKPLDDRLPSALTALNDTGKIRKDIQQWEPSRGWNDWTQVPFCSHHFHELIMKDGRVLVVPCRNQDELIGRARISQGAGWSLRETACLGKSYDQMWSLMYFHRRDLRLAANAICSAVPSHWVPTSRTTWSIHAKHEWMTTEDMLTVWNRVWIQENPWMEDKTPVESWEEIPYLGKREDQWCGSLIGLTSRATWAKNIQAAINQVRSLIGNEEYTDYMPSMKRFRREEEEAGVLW

## COc1ccc(N(C(=O)c2ccco2)S(=O)(=O)c2cc(Cl)c(Cl)cc2Cl)cc1
[1]
  IC50: 11 µM (not active)
Ephrin type-A receptor 4
  IC50: > 100 µM (not active)
[2]
  CC50: > 40 µM (active)

## O=[N+]([O-])c1cc2ccccc2c(O)c1O
Caspase-6
  AC50: 13.4 µM (active)
[3]
  IC50: > 66 µM (inactive)
Genome polyprotein
  IC50: 7.79 µM (active)
[4]
  IC50: > 66 µM (inactive)

## COc1ccccc1-n1c(SCC(=O)Nc2ccc(Cl)cc2)nc(=O)c(Cc2ccccc2)c1O
[5]
  IC50: 5.59 µM (active)
[6]
  IC50: 5.07 µM (active)
[7]
  IC50: 77.1 µM (inactive)
[8]
  IC50: 74.5 µM (inactive)

## O=C(O)C1=C2C(=O)Nc3cccc(c32)C2(C1)C(=O)Nc1ccccc12 (stereo unspecified)
[9]
  AC50: 25.1 µM (active)

## Cc1ccc(S(=O)(=O)Nc2ccc3c(c2)C(=O)N([C@@H](C)CO)C[C@@H](C)[C@H](CN(C)S(=O)(=O)c2ccc(F)cc2)OCCCC[C@@H](C)O3)cc1
[10]
  AC50: > 30 µM (inactive)

## O=C(c1ccccc1F)N1C[C@H]2[C@@H](c3ccccc31)[C@@H](CO)N2CC1CCCCC1
[10]
  AC50: > 30 µM (inactive)

## C/C(N)=C(/C#N)C(=O)CSc1nnc(Nc2c(C)cccc2C)s1
Bcl-2-like protein 10
  IC50: 17.2 µM (active)
[11]
  IC50: 30.2 µM (active)

From ChEMBL document CHEMBL1201862, “PubChem BioAssay data set” (2004)
